# Assay results taken from patent US11248016B2, “Glycolipids and pharmaceutical compositions thereof for use in therapy” (THE UNIVERSITY OF NOTTINGHAM, priority 2014, dated 2022).
# System: primary canine histocytic sarcoma tumour cells
# Assay: Primary canine tumour cell experiments
# Assay type: cell-based, dog
# Details: Cisplatin (10 μM) plus Formula II, 6 days
# Method: Cells were cultured for 6 days with a single dose treatment of Cisplatin™ (10 μM) or a combination of Cisplatin™ plus a compound of Formula II (active). Images were taken after 6 days treatment and are representative of three independently treated wells. Each image (40× magnification) represents the majority of the well area and is of an equivalent area in each photograph.
# Known inhibitors of protein synthesis such as hippuristanol have proven potent anti-cancer properties when used in combination with chemotherapeutic agents such as Cisplatin™ or Doxorubicin™. However hippuristanol is naturally found in coral to is scarce and expensive to obtain, furthermore it is very difficult and expensive to synthesise. […] In particular this combination has a potent effect at slowing proliferation or killing cancer cells. Slow growing and difficult to treat tumour cell types such as A549 lung cancer cells, SH-SY5Y neuroblastoma or SKOV-3 cancer cells are all sensitised by exposure to Formula II to very low doses of Cisplatin™ (FIGS. 4d, 4e, 4f and 7)—a complete kill can be achieved in both A549 and SH-SY5Y cells after a single dose treatment with g quantities of a compound of Formula II in combination with 1 μM or 2.5 μM treatments of Cisplatin™. […]
structure (smiles),measurement,value
"CC/C=C\C/C=C\C/C=C\CCCCCCCC(=O)OC[C@H](COC1OC(CO)C(O)C(O)C1O)OC(=O)CCCCCCC/C=C\C/C=C\C/C=C\CC (stereo partly drawn) [Formula II, 1,2-dioctadecatienyl-3-O-β-D-galactosyl-sn-glycerol]",canine tumour cells after Cisplatin plus Formula II,substantially all tumour cells were killed
